The values that follow come from patent publication US8293488B2, “Method for screening neurogenic agents” (Neuralstem, Inc., priority 2002, dated 2012).

What all share (format): cell-based
For data set [1], the system named is differentiating human hippocampal progenitor cells. The experiment in a line: Dose-response of neuron number (TuJ1 positive cells, automated cell counter). Particulars: 7 days, 100 picaM to 100 microM. As for the experimental part: FIG. 6. Examples of neurogenesis profile of compounds selected from primary screening. After 7 days of compound treatment, the cells were stained with TuJ1 for neurons. The absolute number of TuJ1+ neurons per area was quantified and expressed as a relative value to the vehicle treated control.
FIG. 7. Dose-dependent increase in neuron number. Differentiating human hippocampal progenitor cells were treated for 7 days with varying concentrations of “primary hits”. Subsequently, the cells were fixed, stained with TuJ1, and positive cells were quantified by an automated cell counter. Shown are the number of neurons after each treatment normalized against the vehicle control (0 microM=1.0).
(§1) Linearity of dose-response and in vitro neurotoxicity are used to further filter down desired compounds from the primary screen. The dose-response curve measures neurogenesis over a concentration range of 100 picaM to 100 microM. The rationale for this is to eliminate early on those compounds with pronounced toxicity and those without a dose-dependent effect on neurogenesis. […] Table II contains the summary of EC50 of each compound tested.

The subject of data set [2] is human hippocampal multipotent stem/progenitor cells. The data set can be described thus: Proliferation by Alamar Blue staining of live cells after 7 days of compound treatment. The settings on record: 7 days compound treatment, relative to vehicle control. As for the experimental part: FIG. 4. Examples of proliferation profile of compounds selected from primary screening. Proliferation was measured after compound treatment for 7 days by Alamar Blue staining of live cells per well. Shown are relative values over the vehicle control.
(§2) (1) Undifferentiated human neural stem/progenitor cells were harvested by enzyme treatment.
(§3) (2) The collected cells were seeded at 40,000 cells per well of 96-well plates pre-coated with extracellular matrix proteins (e.g., Biocoat PDL, Fisher). The seeding media is a standard serum-free, growth factor-free, basal media that supports healthy neuronal/glial survival, such as N2 without phenol red.
(§4) (3) Test agents at appropriate concentrations were added to each well on Day 0.
(4) The assay plates were incubated for 7 days, with 50% media change at every other day. On Day 2, 4, and 6 of post-plating, additional increment of the screening agents at appropriate concentrations were added to each well. […]
(6) The fluorescence of the oxidized dye in each well was read by a fluorescent plate reader with the following settings:
Excitation 530 nm, emission 590 nm, cutoff 570 nm The fluorescence level is proportional to the number of respiring cells in the culture and is a measure of a proliferative activity of a test agent (FIG. 2).
A general note: Alamar Blue is a resazurin reagent that responds to reducing activity.

The test system of data set [3] is differentiating human hippocampal progenitor cells. The experiment in a line: In vitro neurotoxicity from dose-response curves. The settings on record: dose-response up to 100 microM.
Text: as §1

Data set [4] concerns human hippocampal progenitor cells. The experiment in a line: In vitro neurogenesis assay (primary screen, positive control selection). Particulars: for effective in the neurogenesis assay: growth factors 20 ng/ml, 7 days. As for the experimental part:
FIG. 3A. Influence of known growth factors on proliferation and neurogenesis relative to control. Hippocampal progenitor cells were treated for seven days with differentiation media (without mitogen) in the presence or absence of 20 ng/ml of growth factor dosed every other day. Plates were treated with Alamar Blue as described in Methods, then fixed and stained with antibody (TuJ1) against type III beta-tubulin (neuronal marker). The 96-well plate was read in a fluorescent plate reader. Bars represent the Mean+SD from 4 wells per treatment.
as §2, §3, §4
(4) The assay plates were incubated for 7 days, with 50% media change at every other day. On Day 2, 4, and 6 of post-plating, additional increment of the screening agents at appropriate concentrations were added to each well.
(7) After the alamar blue assay, the cells were fixed and stained with antibodies against neuron-specific antigens according to standard procedures. Typical antigens effective were Type III-beta tubulin and MAP2c.
(§5) (9) As a preliminary detection of positive activities, the overall immunostaining intensity in each well was read by a fluorescence plate reader. For the positive hits, more quantitative analysis was carried out by automated morphometric counting of individual cells.
Thus, the assay can discriminate test agents for selectively having a neurogenic activity. The positive control utilized is leukemia inhibitory factor (LIF), a cytokine growth factor, at 20 ng/ml. The selection of LIF as the positive control is based on its properties to increase by 2-3 fold the number of neurons and glia. This effect validates both the neural stem cell system, in which, should a compound be effective in neurogenesis, the cells respond appropriately by enhanced differentiation and/or mitosis, and the assay method in which such cellular responses can be measured reproducibly and quantifiably.
5,628 synthetic compounds of the type Fused Imidazoles, Aminopyrimidines, Nicotinamides, Aminomethyl Phenoxypiperidines and Aryloxypiperidines are evaluated for their effect on neurogenesis according the assay method described above. […] Those were re-analyzed by quantitative neuron counting. […] The significance level was empirically set at an activity above 30% change over the vehicle control for proliferation and above 10% change for neurogenesis.

Data set [5] has as its system human hippocampal multipotent stem/progenitor cells. The experiment in a line: Neurogenesis: ratio of TuJ1 stained neurons to total nuclei after 7 days. The settings on record: 20 ng/ml, differentiation media without mitogen, manual cell counting, controls 48.5+6.3%. As for the experimental part:
FIG. 3B. LIF effects on hippocampal cell proliferation and neurogenesis by manual cell counting. Hippocampal progenitor cells were treated for seven days with differentiation media (without mitogen) in the presence or absence of 20 ng/ml LIF. Three fields were analyzed per well for total number of cells (DAPI positive nuclei) and for total number of neurons (TUJI positive cells). Bars represent the Mean+SD from 4 wells per treatment. The percentage of neurons calculated for each treatment are as follows: 48.5+6.3% for controls and 53.6+1.15 for LIF. The non-TUJ1 positive cells are mainly astrocytic (GFAP+).
FIG. 5. Example of neurogenesis profile of compounds selected from primary screening. After 7 days of compound treatment, the ratio of neuron number (TuJ1 stained) to the total nuclei number (Hoechst stained) was determined. Shown are the relative ratio of neuron:total cells for each compound over the vehicle control in percentage. […]
(8) The total cell number in each well was quantified by staining the cultures with a nuclear dye such as DAPI or Hoechst according to standard procedures.
as §5

The EC50 is the concentration at which the effect is half-maximal. Lower therefore signals greater potency. `CCCCNc1c(C2CCN(C(=O)CN(CC(C)C)S(C)(=O)=O)CC2)nc2cnccn12` [NSI-106] gave an EC50 in data set [1] of 0.1 nM. The “Proliferation (% of Control)” value in data set [2] is 211 ± 48 % of Control. The “Other Characterization of Toxicity” value in data set [3] is “No Toxicity”.

As to `NC(=O)c1cnc(NCc2ccc(Cl)cc2)nc1NCC1CCCCC1` [NSI-144], the concentration giving a half-maximal response (EC50) in data set [1] was 1 nM. Moreover, the “Proliferation (% of Control)” value in data set [2] was 149 ± 15 % of Control. Also, in data set [3], the “Other Characterization of Toxicity” value is on record as “No Toxicity”.

For the molecule `COc1ccc(C2CNC(=O)C2)cc1OC1CCCC1` (stereo not shown) [Rolipram, rolipram, reference compound], the “effective in the neurogenesis assay” value in data set [4] is on record as “effective”. For the molecule leukemia inhibitory factor [LIF], in data set [4] (20 ng/ml), the “increase in the number of neurons and glia” value is reported as 2-3 fold. The “effective in the neurogenesis assay” value in data set [4] was “effective”. Moreover, the “percentage of neurons (TUJ1 positive cells of DAPI positive nuclei)” value in data set [5] is on record as 53.6+1.15.

B1: brain-derived neurotrophic factor (protein, UniProt P23560 19-247, looked up)
Neurotrophic factor BDNF …: APMKEANIRGQGGLAYPGVRTHGTLESVNGPKAGSRGLTSLADTFEHVIEELLDEDQKVRPNEENNKDADLYTSRVMLSSQVPLEPPLLFLLEEYKNYLDAANMSMRVRRHSDPARRGELSVCDSISEWVTAADKKTAVDMSGGTVTVLEKVPVSKGQLKQYFYETKCNPMGYTKEGCRGIDKRHWNSQCRTTQSYVRALTMDSKKRIGWRFIRIDTSCVCTLTIKRGR
B1: the “effective in the neurogenesis assay” value in data set [4] is “Only one (leukemia inhibitory factor) was effective”.

B2: neurotrophic factor-3 (protein, UniProt P20783 139-257, looked up)
Neurotrophin-3: YAEHKSHRGEYSVCDSESLWVTDKSSAIDIRGHQVTVLGEIKTGNSPVKQYFYETRCKEARPVKNGCRGIDDKHWNSQCKTSQTYVRALTSENNKLVGWRWIRIDTSCVCALSRKIGRT
As for B2, the “effective in the neurogenesis assay” value in data set [4] is “Only one (leukemia inhibitory factor) was effective”.

B3: glia-derived neurotrophic factor (protein, UniProt P39905 78-211, looked up)
Glial cell line-derived …: SPDKQMAVLPRRERNRQAAAANPENSRGKGRRGQRGKNRGCVLTAIHLNVTDLGLGYETKEELIFRYCSGSCDAAETTYDKILKNLSRNRRLVSDKVGQACCRPIAFDDDLSFLDDNLVYHILRKHSAKRCGCI
In the case of B3, in data set [4], the “effective in the neurogenesis assay” value is “Only one (leukemia inhibitory factor) was effective”.
